Measurements reported in PubChem BioAssay (NCI).
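Results reflect a 48-hour exposure of cells in 96-well plates to compound at five concentrations. Definition used: TGI = concentration required for complete inhibition of growth.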

How the values were obtained:
Test in all cases: DTP human tumour cell line panel, 48 h
[1] = test system: UO-31 renal
[2] = test system: BT-549 breast
[3] = test system: RXF 393 renal
[4] = test system: ACHN renal
[5] = test system: CCRF-CEM leukemia
[6] = test system: OVCAR-3 ovarian
[7] = test system: MDA-N
[8] = test system: SW-620 colon
[9] = test system: SF-295 CNS
[10] = test system: HCT-116 colon
[11] = test system: COLO 205 colon
[12] = test system: SK-OV-3 ovarian
[13] = test system: OVCAR-8 ovarian
[14] = test system: OVCAR-4 ovarian
[15] = test system: PC-3 prostate
[16] = test system: TK-10 renal
[17] = test system: HOP-62 NSCLC
[18] = test system: SF-268 CNS
[19] = test system: MALME-3M melanoma
[20] = test system: MDA-MB-435
[21] = test system: RPMI-8226 leukemia
[22] = test system: MDA-MB-231 breast
[23] = test system: U251 CNS
[24] = test system: MCF7 breast
[25] = test system: T-47D breast
[26] = test system: HT29 colon
[27] = test system: 786-0 renal
[28] = test system: UACC-62 melanoma
[29] = test system: OVCAR-5 ovarian
[30] = test system: HOP-92 NSCLC
[31] = test system: CAKI-1 renal
[32] = test system: KM12 colon
[33] = test system: NCI-H460 lung
[34] = test system: HCT-15 colon
[35] = test system: NCI-H23 lung
[36] = test system: M14 melanoma
[37] = test system: HS 578T breast
[38] = test system: DU-145 prostate
[39] = test system: SR leukemia
[40] = test system: SF-539 CNS
[41] = test system: SN12C renal
[42] = test system: SK-MEL-2 melanoma
[43] = test system: NCI/ADR-RES ovarian
[44] = test system: NCI-H522 lung
[45] = test system: HCC-2998 colon
[46] = test system: A549 NSCLC
[47] = test system: HL-60(TB) leukemia
[48] = test system: NCI-H226 lung
[49] = test system: LOX IMVI melanoma
[50] = test system: IGROV1 ovarian
[51] = test system: K-562 leukemia
[52] = test system: SK-MEL-5 melanoma
[53] = test system: SNB-19 CNS
[54] = test system: MOLT-4 leukemia
[55] = test system: EKVX NSCLC

## CCOC(=O)C1C(=O)C=C(c2cc(C)ccc2O)CC1c1cccc(Cl)c1 (stereo not given)
[1]
  TGI: 65.9 µM
[2]
  TGI: > 100 µM
[3]
  TGI: 54.5 µM
[4]
  TGI: 51.7 µM
[5]
  TGI: 94.7 µM
[6]
  TGI: > 100 µM
[7]
  TGI: 29.8 µM
[8]
  TGI: > 100 µM
[9]
  TGI: 76.3 µM
[10]
  TGI: > 100 µM
[11]
  TGI: 34.9 µM
[12]
  TGI: 79.7 µM
[13]
  TGI: > 100 µM
[14]
  TGI: 56.2 µM
[15]
  TGI: > 100 µM
[16]
  TGI: 57.7 µM
[17]
  TGI: > 100 µM
[18]
  TGI: 97.3 µM
[19]
  TGI: 75.6 µM
[20]
  TGI: 8.23 µM
[21]
  TGI: 48.3 µM
[22]
  TGI: 83.4 µM
[23]
  TGI: 40.7 µM
[24]
  TGI: 74.5 µM
[25]
  TGI: > 100 µM
[26]
  TGI: 86.7 µM
[27]
  TGI: > 100 µM
[28]
  TGI: 47 µM
[29]
  TGI: > 100 µM
[30]
  TGI: 61.5 µM
[31]
  TGI: > 100 µM
[32]
  TGI: 69 µM
[33]
  TGI: > 100 µM
[34]
  TGI: 13.2 µM
[35]
  TGI: 88.6 µM
[36]
  TGI: > 100 µM
[37]
  TGI: 58 µM
[38]
  TGI: > 100 µM
[39]
  TGI: 34.9 µM
[40]
  TGI: 47 µM
[41]
  TGI: 95.9 µM
[42]
  TGI: 46.7 µM
[43]
  TGI: 54.2 µM
[44]
  TGI: 37 µM
[45]
  TGI: 69.8 µM
[46]
  TGI: 49.1 µM
[47]
  TGI: 63.5 µM
[48]
  TGI: 73.5 µM
[49]
  TGI: 57.4 µM
[50]
  TGI: 51.1 µM
[51]
  TGI: 53.8 µM
[52]
  TGI: 50.5 µM
[53]
  TGI: 44.2 µM
[54]
  TGI: > 100 µM
[55]
  TGI: > 100 µM
